Source: patent publication US10988465B2, “CXCR4 inhibitors and uses thereof” (X4 Pharmaceuticals, Inc., priority 2016, dated 2021)

What was measured:
[1] = molecular target: T1, Jurkat cells expressing CXCR4 (Homo sapiens, UniProt P61073); experiment: Chemokine (CXCL12-AF647) binding inhibition assay; conditions: CXCL12-AF647 25 ng/mL, read-out: IC50 CXCL-12 binding Jurkat
T1 construct: endogenous in cells; host or cells: Jurkat
Description: Chemokine (CXCL12-AF647) Binding Inhibition Assay
Jurkat cells expressing CXCR4 were washed once with assay buffer (Hanks' balanced salt solution with 20 mM HEPES buffer and 0.2% bovine serum albumin, pH 7.4) and then incubated for 15 min at room temperature with the test compounds diluted in assay buffer at dose-dependent concentrations. Subsequently, CXCL12-AF647 (25 ng/mL) was added to the compound-incubated cells. The cells were incubated for 30 min at room temperature. Thereafter, the cells were washed twice in assay buffer, fixed in 1% paraformaldehyde in PBS, and analyzed on the FL4 channel of a FACSCalibur flow cytometer equipped with a 635-nm red diode laser (Becton Dickinson, San Jose, Calif., USA).
The percentages of inhibition of CXCL12-AF647 binding were calculated according to the formula: [1−((MFI−MFINC)/(MFIPC−MFINC))]×100 where MFI is the mean fluorescence intensity of the cells incubated with CXCL12-AF647 in the presence of the inhibitor, MFINC is the mean fluorescence intensity measured in the negative control (i.e., autofluorescence of unlabeled cells), and MFIPC is the mean fluorescence intensity of the positive control (i.e., cells exposed to CXCL12-AF647 alone).

[2] = molecular target: T2, CXCR-4 transfected U87 cell line (U87.CXCR4) (Homo sapiens, UniProt P61073); experiment: Intracellular CXCL-12-induced calcium mobilization assay (FLIPR); type: cell-based; conditions: U87.CXCR4 cells; CXCL-12 25-50 ng/mL; compound added 15 min before; read-out: IC50 CXCL-12 Ca^2+ flux U87.CXCR4+
T2 construct: expressed in transfected cells; host or cells: U87 (U87.CXCR4)
Description: Example 36: REGA Screening Assay
Intracellular CXCL-12-Induced Calcium Mobilization Assay
Intracellular calcium mobilization induced by chemokines or chemokine-derived peptides were evaluated using a calcium responsive fluorescent probe and a FLIPR system. The CXCR-4 transfected U87 cell line (U87.CXCR4) cells were seeded in gelatine-coated black-wall 96-well plates at 20,000 cells per well and incubated for 12 hours. Cells were then loaded with the fluorescent calcium probe Fluo-2 acetoxymethyl at 4 μM final concentration in assay buffer (Hanks' balanced salt solution with 20 mM HEPES buffer and 0.2% bovine serum albumin, pH 7.4) for 45 min at 37° C. The intracellular calcium mobilization induced by the CXCL-12 (25-50 ng/mL) was then measured at 37° C. by monitoring the fluorescence as a function of time in all the wells simultaneously using a fluorometric imaging plate reader (FLIPR Tetra, Molecular Devices).

in vitro = conditions: human, Caco-2, pH 7.4
Description: Example 37: Caco-2 Permeability Assay
The goal of this assay was to evaluate the intestinal absorption potential of drug candidates using Caco-2 cell lines.
HBSS buffer with 0.3% DMSO and 5 μM LY: add 150 μL DMSO and 50 μL LY (5 mM) into 50 ml HBSS buffer (pH 7.4).
HBSS buffer with 0.1% DMSO and 5 μM LY: add 50 μL DMSO and 50 μL LY (5 mM) into 50 mL HBSS buffer (pH 7.4).
HBSS buffer with 0.3% DMSO: add 150 μL DMSO into 50 ml HBSS buffer (pH 7.4).
HBSS buffer with 0.1% DMSO: add 50 μL DMSO into 50 ml HBSS buffer (pH 7.4).
Prepare HBSS buffer with 0.4% DMSO: add 200 μL DMSO into 50 ml HBSS buffer (pH 7.4).
Prepare HBSS buffer with 0.4% DMSO and 5 μM LY: add 200 μL DMSO and 50 μL LY (5 mM) into 50 ml HBSS buffer (pH 7.4).
4. Measure TEER Take cell culture plate out of incubator, wash the cell monolayers with HBSS buffer, and then measure TEER values at Rm temperature. 5. Centrifuge Centrifuge the compound solution (from step 3) at 4000 rpm for 5 min before loading to donor chambers. 6. Dosing Add solution based on the volumes listed in the following table (make sure to take extra 100 μL of donor sample for T0 as Backup).
7. Apical LYT0 samples To determine LY concentration in the apical chember, take 100 μL sample from apical chambers into an opaque plate for LYT0. 8. Prewarm Prewarm apical and basolateral plates at 37° C. for about 5 min, then begin transport by placing the apical plate onto basolateral plate. 9. Incubation Keep the plates in incubator at 37° C. for 90 min. 10. Standard Curve preparation
11. Transport termination Separate the apical plate from the basolateral plate after 90-min incubation.
Receiver sample: 60 μL of receiver sample+60 μL ACN with IS (Osalmid or Imipramine)
Study details: Test concentration 10 μM
Test systems: Caco-2/HBSS solution
Incubation conditions: 0, 90 min at 37° C.
Sample size: Duplicates (n=2)
Bioanalytical method: LC-MS/MS
For Millicell-24 Cell Culture Plates: surface area of the membrane=0.7 cm^2, VA=0.8 mL (A-to-B) or 0.4 mL (B-to-A)
1. Papp values were calculated based on calculated concentrations.
The compound numbers correspond to the compound numbers in Table 1.

T1 sequence (P61073 whole entry): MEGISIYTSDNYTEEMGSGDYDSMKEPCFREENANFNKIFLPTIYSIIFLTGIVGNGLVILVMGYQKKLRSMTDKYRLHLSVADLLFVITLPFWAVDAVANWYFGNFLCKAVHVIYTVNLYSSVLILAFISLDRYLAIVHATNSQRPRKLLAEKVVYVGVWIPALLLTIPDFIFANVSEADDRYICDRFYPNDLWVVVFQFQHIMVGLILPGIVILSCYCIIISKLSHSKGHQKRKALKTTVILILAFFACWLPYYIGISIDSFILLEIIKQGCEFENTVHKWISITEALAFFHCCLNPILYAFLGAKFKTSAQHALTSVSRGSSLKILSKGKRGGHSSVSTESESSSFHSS
T2 sequence (P61073 whole entry): as above

Structure (SMILES) | IC50 [1] [nM] | IC50 [2] [nM] | Papp A→B at 90 min, 10 μM (in vitro) [×10⁻⁶ cm/s] | Papp B→A at 90 min, 10 μM (in vitro) [×10⁻⁶ cm/s] | efflux ratio at 90 min, 10 μM (in vitro)
Cc1cccnc1[C@@H]1CCC[C@H](c2nc3cccc(N4C5CCC4CNC5)c3[nH]2)N1C [I-99] | 0.01 to 100 | 0.01 to 100 | 0.1 to 10 | > 30 | > 30
CN1CCN(c2cccc3nc([C@H]4CCC[C@@H](c5nccc6c5OCCO6)N4C)[nH]c23)CC1 [I-65] | 100 to 1000 | 100 to 1000 | 10 to 30 | 10 to 30 | 0.1 to 10
Cc1cccnc1[C@@H]1CCC[C@H](c2nc3cccc(N4CC5CC(C4)N5C)c3[nH]2)N1C [I-109] | 0.01 to 100 | 100 to 1000 | 0.1 to 10 | 10 to 30 | 0.1 to 10
Cc1cccnc1[C@@H]1CCC[C@H](c2nccn2CCn2cccn2)N1 [I-176] | ≥ 1000 | ≥ 1000 | 10 to 30 | > 30 | 0.1 to 10
Cc1cccnc1[C@@H]1CCC[C@H](c2nc3ccccc3n2CCCCN2CCOCC2)N1C [I-39] | 100 to 1000 | ≥ 1000 | 10 to 30 | 10 to 30 | 0.1 to 10
Cc1ccnnc1[C@@H]1CCC[C@H](c2nc3cccc(N4CCN(C)CC4)c3[nH]2)N1C [I-84] | 100 to 1000 | ≥ 1000 | 0.1 to 10 | 10 to 30 | 10 to 30
Cc1cccnc1[C@@H]1CCC[C@H](c2nc3ccccc3n2CCCCN2CCN(C)CC2)N1C [I-40] | 100 to 1000 | ≥ 1000 | 0.1 to 10 | 10 to 30 | 0.1 to 10
Cc1cccnc1[C@@H]1CCC[C@H](c2nc3ccccc3n2CCC#N)N1C [I-160] | 100 to 1000 | ≥ 1000 | > 30 | > 30 | 0.1 to 10
Cc1cccnc1[C@@H]1CCC[C@H](c2nc3ccccc3n2CCC#N)N1 [I-159] | ≥ 1000 | ≥ 1000 | 10 to 30 | 10 to 30 | 0.1 to 10
Cc1cccnc1[C@@H]1CCC[C@H](c2nc3c(N4CCN(C)CC4)cccc3n2C)N1C [I-36] | ≥ 1000 | ≥ 1000 | 10 to 30 | 10 to 30 | 0.1 to 10
Cc1cccnc1[C@@H]1CCC[C@H](c2nc3cccc(N4CC5CCC(C4)N5C)c3[nH]2)N1 [I-118] | 0.01 to 100 | 0.01 to 100 | 0.1 to 10 | > 30 | 10 to 30
Cc1cccnc1[C@@H]1CCC[C@H](c2nc3ccccc3n2Cc2ccccc2-n2cccn2)N1 [I-161] | 100 to 1000 | ≥ 1000 | > 30 | > 30 | 0.1 to 10
Cc1cccnc1[C@@H]1CCC[C@H](c2nc3cccc(N4CCN5CCCC5C4)c3[nH]2)N1 (stereo partly drawn) [I-126] | 0.01 to 100 | 0.01 to 100 | 0.1 to 10 | 10 to 30 | 0.1 to 10

Further lines, results first:

IC50 [1] [nM] | IC50 [2] [nM] | Papp A→B at 90 min, 10 μM (in vitro) [×10⁻⁶ cm/s] | Papp B→A at 90 min, 10 μM (in vitro) [×10⁻⁶ cm/s] | efflux ratio at 90 min, 10 μM (in vitro) | Structure (SMILES)
0.01 to 100 | 100 to 1000 | 0.1 to 10 | 10 to 30 | 0.1 to 10 | Cc1cccnc1[C@@H]1CCC[C@H](c2nc3ccccc3n2C2CCN(C)CC2)N1 [I-131]
0.01 to 100 | 100 to 1000 | 10 to 30 | 10 to 30 | 0.1 to 10 | CN1CCN(c2cccc3nc([C@H]4CCC[C@@H](c5nccn6cccc56)N4C)[nH]c23)CC1 (stereo in doubt) [I-90]
0.01 to 100 | 0.01 to 100 | 10 to 30 | 10 to 30 | 0.1 to 10 | CC(C)N1CCN(c2cccc3nc([C@H]4CCC[C@@H](c5ncccc5Cl)N4)[nH]c23)CC1 [I-148]
0.01 to 100 | 100 to 1000 | 0.1 to 10 | > 30 | 0.1 to 10 | CN(C)CCCn1ccnc1[C@H]1CCC[C@@H](c2ncccc2Cl)N1C [I-169]
0.01 to 100 | 0.01 to 100 | 0.1 to 10 | 0.1 to 10 | 0.1 to 10 | Cc1cccnc1[C@@H]1CCC[C@H](c2nc3ccccc3n2CCCN2CCC(F)(F)CC2)N1C [I-30, 1-(3-(4,4-difluoropiperidin-1-yl)propyl)-2-((2R,6S)-1-methyl-6-(3-methylpyridin-2-yl)piperidin-2-yl)-1H-benzo[d]imidazole]
0.01 to 100 | 0.01 to 100 | 10 to 30 | 10 to 30 | 0.1 to 10 | CCc1cccnc1[C@@H]1CCC[C@H](c2nc3cccc(N4CCN(C)CC4)c3[nH]2)N1C [I-114]
0.01 to 100 | 0.01 to 100 | 10 to 30 | 10 to 30 | 0.1 to 10 | Cc1cccnc1[C@@H]1CCC[C@H](c2nc3ccccc3n2CCCN2CCOCC2)N1C [I-18, 4-(3-(2-((2R,6S)-1-methyl-6-(3-methylpyridin-2-yl)piperidin-2-yl)-1H-benzo[d]imidazol-1-yl)-propyl)morpholine]
0.01 to 100 | 0.01 to 100 | 10 to 30 | 10 to 30 | 0.1 to 10 | Cc1cccnc1[C@@H]1CCC[C@H](c2nc3cccc(N4CCN(C5CC5)CC4)c3[nH]2)N1 [I-125]
0.01 to 100 | 0.01 to 100 | 0.1 to 10 | 10 to 30 | 0.1 to 10 | CCN1[C@@H](c2nc3ccccc3n2CC2CCN(C)CC2)CCC[C@H]1c1ncccc1C [I-25, 2-((2R,6S)-1-ethyl-6-(3-methylpyridin-2-yl)piperidin-2-yl)-1-((1-methylpiperidin-4-yl)methyl)-1H-benzo[d]imidazole]
0.01 to 100 | 0.01 to 100 | 0.1 to 10 | 10 to 30 | 0.1 to 10 | Cc1cccnc1[C@@H]1CCC[C@H](c2nc3ccccc3n2CCCNC2CCOCC2)N1C [I-19, N-(3-(2-((2R,6S)-1-methyl-6-(3-methylpyridin-2-yl)piperidin-2-yl)-1H-benzo[d]imidazol-1-yl)propyl)tetrahydro-2H-pyran-4-amine]
0.01 to 100 | 0.01 to 100 | 10 to 30 | 0.1 to 10 | 0.1 to 10 | Cc1cccnc1[C@@H]1CCC[C@H](c2nc3cccc(N4CCN(C(C)C)CC4)c3[nH]2)N1C [I-75]
